Measurements as given in patent US11572369B2, “Bicyclic pyridine compositions and methods of using the same for cancer therapy” (UNIVERSITY OF SOUTH CAROLINA, priority 2019, dated 2023).

How the values were obtained:
[1] = tested on: NFκB activation in CDK8/19-deficient cells; experiment: NFκB reporter assay in CDK8/19 double-knockout 293 reporter cells; details: CDK8/19 double-knockout reporter cells
[2] = tested on: CRPC cell line 22rv1 xenograft; experiment: 22rv1 CRPC xenograft in castrated male nude mice; assay type: in vivo, mouse; details: 50 mg/kg orally daily
Protocol: In another in vivo study, CRPC cell line 22rv1 was grown as a xenograft in castrated male nude mice.

[3] = target: T1, PRKG1 (Homo sapiens, UniProt Q13976); experiment: KINOMEscan; assay type: binding; details: 2000 nM
T1 construct: purchased DiscoveRx (KINOMEscan scanMAX panel)
T1 sequence (Q13976 whole entry): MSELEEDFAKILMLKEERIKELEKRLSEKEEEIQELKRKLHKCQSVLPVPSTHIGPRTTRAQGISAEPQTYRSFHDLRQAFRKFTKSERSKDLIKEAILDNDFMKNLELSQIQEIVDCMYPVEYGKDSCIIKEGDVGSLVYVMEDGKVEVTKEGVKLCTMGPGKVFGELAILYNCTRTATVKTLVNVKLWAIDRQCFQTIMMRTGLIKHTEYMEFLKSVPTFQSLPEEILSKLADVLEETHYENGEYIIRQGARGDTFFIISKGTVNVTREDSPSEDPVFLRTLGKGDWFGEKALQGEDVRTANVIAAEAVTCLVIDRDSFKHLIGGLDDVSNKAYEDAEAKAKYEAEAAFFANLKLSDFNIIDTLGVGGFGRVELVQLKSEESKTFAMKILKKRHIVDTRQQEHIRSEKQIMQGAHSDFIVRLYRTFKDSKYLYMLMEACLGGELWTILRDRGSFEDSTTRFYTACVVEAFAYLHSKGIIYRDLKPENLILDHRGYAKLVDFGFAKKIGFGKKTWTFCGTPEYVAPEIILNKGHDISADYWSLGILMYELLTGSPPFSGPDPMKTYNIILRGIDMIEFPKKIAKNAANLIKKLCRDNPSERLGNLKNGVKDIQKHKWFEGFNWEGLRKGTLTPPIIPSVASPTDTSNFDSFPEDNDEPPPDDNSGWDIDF

[4] = Mouse PK, oral 1 mg/kg; assay type: in vivo; details: female, FVB, serum, mice, oral (gavage) 1 mg/kg
[5] = target: T2, ITK (Homo sapiens, UniProt Q08881); experiment: KINOMEscan; assay type: binding; details: 2000 nM
T2 construct: DNA label (qPCR read-out); purchased KINOMEscan (DiscoveRx) ScanMAX panel
T2 sequence (Q08881 whole entry): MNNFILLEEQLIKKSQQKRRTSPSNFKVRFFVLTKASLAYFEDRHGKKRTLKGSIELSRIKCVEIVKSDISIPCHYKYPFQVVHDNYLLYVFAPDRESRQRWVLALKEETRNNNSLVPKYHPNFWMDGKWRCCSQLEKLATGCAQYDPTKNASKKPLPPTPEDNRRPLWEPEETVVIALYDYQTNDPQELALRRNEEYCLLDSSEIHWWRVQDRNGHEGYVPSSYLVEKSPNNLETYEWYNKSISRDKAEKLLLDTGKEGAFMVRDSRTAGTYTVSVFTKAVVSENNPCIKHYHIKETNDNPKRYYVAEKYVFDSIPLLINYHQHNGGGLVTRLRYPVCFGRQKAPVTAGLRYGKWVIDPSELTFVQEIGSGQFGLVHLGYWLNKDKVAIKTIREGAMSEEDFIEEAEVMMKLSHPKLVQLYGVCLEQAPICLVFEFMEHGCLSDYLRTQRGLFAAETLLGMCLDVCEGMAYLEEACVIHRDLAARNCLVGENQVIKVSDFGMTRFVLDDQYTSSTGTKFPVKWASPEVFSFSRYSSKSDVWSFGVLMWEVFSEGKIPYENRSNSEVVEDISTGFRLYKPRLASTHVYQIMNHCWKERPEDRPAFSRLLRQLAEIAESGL

[6] = tested on: 4T1 murine triple-negative breast cancer; experiment: 4T1 TNBC lung metastasis survival after primary tumor removal; assay type: in vivo, mouse; details: 25 mg/kg oral b.i.d. after removal of primary tumor
[7] = target: T3, TBK1 (Homo sapiens, UniProt Q9UHD2); experiment: KINOMEscan; assay type: binding; details: 2000 nM
T3 construct: DNA label (for qPCR read-out); purchased DiscoveRx (KINOMEscan scanMAX panel, contract assay)
T3 sequence (Q9UHD2 whole entry): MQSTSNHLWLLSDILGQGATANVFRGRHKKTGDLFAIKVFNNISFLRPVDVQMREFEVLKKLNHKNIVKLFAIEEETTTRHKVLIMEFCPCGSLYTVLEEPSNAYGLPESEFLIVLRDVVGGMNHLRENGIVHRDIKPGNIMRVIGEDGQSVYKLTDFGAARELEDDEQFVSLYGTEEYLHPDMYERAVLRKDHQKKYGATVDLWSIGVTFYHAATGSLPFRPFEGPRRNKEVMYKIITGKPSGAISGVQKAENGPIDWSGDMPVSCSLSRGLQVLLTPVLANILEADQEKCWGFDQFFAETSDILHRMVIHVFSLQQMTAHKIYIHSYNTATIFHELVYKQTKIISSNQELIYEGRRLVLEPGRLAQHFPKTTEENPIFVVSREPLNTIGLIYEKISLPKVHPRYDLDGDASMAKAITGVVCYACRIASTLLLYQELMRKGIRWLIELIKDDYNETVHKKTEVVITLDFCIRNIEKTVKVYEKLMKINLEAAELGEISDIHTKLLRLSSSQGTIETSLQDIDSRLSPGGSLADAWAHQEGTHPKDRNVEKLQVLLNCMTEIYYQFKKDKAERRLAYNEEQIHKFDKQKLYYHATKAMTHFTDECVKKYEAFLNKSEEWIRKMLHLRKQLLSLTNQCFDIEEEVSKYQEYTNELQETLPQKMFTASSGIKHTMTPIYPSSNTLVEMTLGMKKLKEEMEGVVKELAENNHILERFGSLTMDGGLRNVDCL

[8] = target: T4, BTK (Homo sapiens, UniProt Q06187); experiment: KINOMEscan; assay type: binding; details: 2000 nM
T4 construct: DNA label (for qPCR read-out); purchased KINOMEscan scanMAX panel (DiscoveRx)

[9] = target: T5, PIP5K2B (Homo sapiens, UniProt P78356); experiment: KINOMEscan; assay type: binding; details: 2000 nM
T5 construct: DNA label (qPCR read-out); purchased KINOMEscan (DiscoveRx) panel
T5 sequence (P78356 whole entry): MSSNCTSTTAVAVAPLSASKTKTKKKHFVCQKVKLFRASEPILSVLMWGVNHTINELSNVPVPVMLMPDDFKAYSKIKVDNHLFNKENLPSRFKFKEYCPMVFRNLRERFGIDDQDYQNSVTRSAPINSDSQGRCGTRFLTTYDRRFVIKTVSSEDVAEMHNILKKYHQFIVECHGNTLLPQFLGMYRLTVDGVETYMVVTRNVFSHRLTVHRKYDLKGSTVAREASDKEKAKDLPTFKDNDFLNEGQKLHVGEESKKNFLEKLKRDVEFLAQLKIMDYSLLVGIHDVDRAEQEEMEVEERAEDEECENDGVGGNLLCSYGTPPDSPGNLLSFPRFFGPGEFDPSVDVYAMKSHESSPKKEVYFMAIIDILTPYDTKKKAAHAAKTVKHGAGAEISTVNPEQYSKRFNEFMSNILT

[10] = target: T6, FES (Homo sapiens, UniProt P07332); experiment: KINOMEscan; assay type: binding; details: 2000 nM
T6 construct: purchased DiscoveRx (KINOMEscan scanMAX panel)
T6 sequence (P07332 whole entry): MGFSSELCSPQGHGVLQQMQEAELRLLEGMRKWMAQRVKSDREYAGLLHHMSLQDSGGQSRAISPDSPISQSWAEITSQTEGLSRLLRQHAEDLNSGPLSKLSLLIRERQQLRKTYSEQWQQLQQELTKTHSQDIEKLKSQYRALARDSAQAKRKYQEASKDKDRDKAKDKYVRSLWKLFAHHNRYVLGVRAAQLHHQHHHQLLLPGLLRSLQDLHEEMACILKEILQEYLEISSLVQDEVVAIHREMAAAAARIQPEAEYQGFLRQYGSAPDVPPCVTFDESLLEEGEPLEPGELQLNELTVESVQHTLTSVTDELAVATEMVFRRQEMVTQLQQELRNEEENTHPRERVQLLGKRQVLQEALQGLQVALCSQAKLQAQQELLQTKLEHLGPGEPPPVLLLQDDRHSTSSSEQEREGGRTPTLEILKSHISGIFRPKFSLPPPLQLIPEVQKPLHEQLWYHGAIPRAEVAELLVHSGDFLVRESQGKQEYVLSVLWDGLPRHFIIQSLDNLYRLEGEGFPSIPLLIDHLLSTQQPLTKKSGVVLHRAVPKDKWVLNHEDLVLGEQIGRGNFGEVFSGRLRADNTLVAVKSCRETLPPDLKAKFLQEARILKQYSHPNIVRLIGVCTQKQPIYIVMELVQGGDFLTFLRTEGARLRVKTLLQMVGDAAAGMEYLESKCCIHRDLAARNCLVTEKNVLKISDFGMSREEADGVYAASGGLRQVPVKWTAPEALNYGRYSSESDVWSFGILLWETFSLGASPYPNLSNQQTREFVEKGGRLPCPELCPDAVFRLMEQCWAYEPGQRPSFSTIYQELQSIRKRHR

[11] = target: T7, CSNK1G2 (Homo sapiens, UniProt P78368); experiment: KINOMEscan; assay type: binding; details: 2000 nM
T7 construct: DNA label; purchased DiscoveRx (KINOMEscan scanMAX panel)
T7 sequence (P78368 whole entry): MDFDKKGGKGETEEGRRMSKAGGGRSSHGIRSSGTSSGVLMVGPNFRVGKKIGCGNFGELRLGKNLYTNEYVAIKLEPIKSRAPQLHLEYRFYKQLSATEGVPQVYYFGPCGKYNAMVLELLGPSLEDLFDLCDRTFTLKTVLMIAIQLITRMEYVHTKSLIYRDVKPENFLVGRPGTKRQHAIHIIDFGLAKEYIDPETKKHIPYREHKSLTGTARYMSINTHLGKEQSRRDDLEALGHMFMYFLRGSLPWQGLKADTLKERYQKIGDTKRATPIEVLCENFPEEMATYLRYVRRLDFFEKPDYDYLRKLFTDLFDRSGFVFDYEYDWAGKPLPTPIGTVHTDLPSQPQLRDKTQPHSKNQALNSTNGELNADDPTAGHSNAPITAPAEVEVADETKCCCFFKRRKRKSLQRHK

[12] = target: T8, PFTK1 (Homo sapiens, UniProt O94921); experiment: KINOMEscan; assay type: binding; details: 2000 nM
T8 construct: DNA label (for qPCR read-out); purchased DiscoveRx (KINOMEscan scanMAX service)
T8 sequence (O94921 whole entry): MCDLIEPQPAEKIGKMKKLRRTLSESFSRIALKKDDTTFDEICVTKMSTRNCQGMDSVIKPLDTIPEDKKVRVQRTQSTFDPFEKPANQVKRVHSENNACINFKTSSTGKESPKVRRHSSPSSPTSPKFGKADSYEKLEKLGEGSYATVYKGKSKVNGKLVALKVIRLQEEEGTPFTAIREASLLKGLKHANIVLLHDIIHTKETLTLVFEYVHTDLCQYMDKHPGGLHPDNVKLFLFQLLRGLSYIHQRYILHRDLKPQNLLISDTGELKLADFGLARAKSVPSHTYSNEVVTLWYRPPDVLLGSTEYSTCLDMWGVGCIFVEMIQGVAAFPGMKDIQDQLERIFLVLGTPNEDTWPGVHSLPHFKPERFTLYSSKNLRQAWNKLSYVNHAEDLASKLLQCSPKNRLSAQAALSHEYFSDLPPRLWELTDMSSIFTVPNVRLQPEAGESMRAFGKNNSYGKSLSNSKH

[13] = target: T9, CDK8 (Homo sapiens, UniProt P49336); experiment: Kd Elect binding assay (DiscoverX); details: duplicates
T9 construct: DNA label (qPCR read-out); purchased DiscoverX (assay service)
Excerpt: (§1) Nat. Biotechnol. 23, 329-336 (2005).

[14] = target: T10, CSNK1A1 (Homo sapiens, UniProt P48729); experiment: Kd Elect binding assay (DiscoverX); details: duplicates
T10 construct: DNA label (qPCR read-out); purchased DiscoverX (assay service)
Excerpt: as §1

[15] = target: T11, CDK19 (Homo sapiens, UniProt Q9BWU1); experiment: Kd Elect binding assay (DiscoverX); details: duplicates
T11 construct: DNA label (qPCR read-out); purchased DiscoverX (assay service)
Excerpt: as §1

[16] = target: T12, RIOK2 (Homo sapiens, UniProt Q9BVS4); experiment: Kd Elect binding assay (DiscoverX); details: duplicates
T12 construct: DNA label (qPCR read-out); purchased DiscoverX (assay service)
Excerpt: as §1

[17] = target: T13, GSK3A (Homo sapiens, UniProt P49840); experiment: Kd Elect binding assay (DiscoverX); details: duplicates
T13 construct: DNA label (qPCR read-out); purchased DiscoverX (assay service)
Excerpt: as §1

[18] = tested on: alkaline phosphatase (ALPase) in bone marrow stromal cell line ST2; details: concentration that enhances ALPase activity to 200% of control; ST2 cells; Saito (2013); cited from earlier work
[19] = target: T14, CDKL2 (Homo sapiens, UniProt Q92772); experiment: KINOMEscan; assay type: binding; details: 2000 nM
T14 construct: DNA label (for qPCR read-out); purchased DiscoveRx (KINOMEscan scanMAX service)

[20] = Mouse PK, intravenous; assay type: in vivo; details: female FVB mice, i.v. 0.5 mg/kg, mixture
Protocol: Pharmacokinetics (PK) Assay. To measure mouse pharmacokinetics (PK), thienopyridine derivatives were dissolved in 5% dextrose and administered to female FVB mice at different dosing conditions; blood samples were collected at different time points and compound concentrations in the serum were measured by LC/MS/MS.

[21] = Long-term MTD study, medicated diet, CD-1 mice; assay type: in vivo, mouse; details: female CD-1 mice, 1000 ppm medicated diet, first week
Protocol: In another long-term MTD in vivo assay, groups of male and female CD-1 mice were fed regular diet (control) or 15u-medicated diet (500 ppm or 1000 ppm) for 4 or 5 weeks (FIG. 12B). The daily doses of 500 ppm and 1000 ppm groups were estimated to be about 50-100 mg/kg and 100-200 mg/kg, respectively, based on daily diet consumption.

[22] = Mouse oral PK of 15u/15w mixture at 30 mg/kg; details: female CD1 mice, oral 30 mg/kg of each compound, latest timepoint 8 hrs
[23] = tested on: MDA-MB-468 xenografts; experiment: MDA-MB-468 xenografts in NSG mice; assay type: in vivo, mouse; details: 66 days
Protocol: To evaluate the effect of CDK8/19 inhibition on in vivo growth of MDA-MB-468 xenografts, 1 million cells with 40% Matrigel ([…] total volume) were injected s.c. into the right flanks of immunodeficient NSG female mice (9 weeks old). 11 days after inoculation, mice were randomized by tumor size into two groups (n=9), with the average tumor volume 115 mm^3 in each group.

[24] = target: T15, IKK-alpha (Homo sapiens, UniProt O15111); experiment: KINOMEscan; assay type: binding; details: 2000 nM
T15 construct: DNA label (qPCR read-out); purchased KINOMEscan (DiscoveRx) ScanMAX panel
T15 sequence (O15111 whole entry): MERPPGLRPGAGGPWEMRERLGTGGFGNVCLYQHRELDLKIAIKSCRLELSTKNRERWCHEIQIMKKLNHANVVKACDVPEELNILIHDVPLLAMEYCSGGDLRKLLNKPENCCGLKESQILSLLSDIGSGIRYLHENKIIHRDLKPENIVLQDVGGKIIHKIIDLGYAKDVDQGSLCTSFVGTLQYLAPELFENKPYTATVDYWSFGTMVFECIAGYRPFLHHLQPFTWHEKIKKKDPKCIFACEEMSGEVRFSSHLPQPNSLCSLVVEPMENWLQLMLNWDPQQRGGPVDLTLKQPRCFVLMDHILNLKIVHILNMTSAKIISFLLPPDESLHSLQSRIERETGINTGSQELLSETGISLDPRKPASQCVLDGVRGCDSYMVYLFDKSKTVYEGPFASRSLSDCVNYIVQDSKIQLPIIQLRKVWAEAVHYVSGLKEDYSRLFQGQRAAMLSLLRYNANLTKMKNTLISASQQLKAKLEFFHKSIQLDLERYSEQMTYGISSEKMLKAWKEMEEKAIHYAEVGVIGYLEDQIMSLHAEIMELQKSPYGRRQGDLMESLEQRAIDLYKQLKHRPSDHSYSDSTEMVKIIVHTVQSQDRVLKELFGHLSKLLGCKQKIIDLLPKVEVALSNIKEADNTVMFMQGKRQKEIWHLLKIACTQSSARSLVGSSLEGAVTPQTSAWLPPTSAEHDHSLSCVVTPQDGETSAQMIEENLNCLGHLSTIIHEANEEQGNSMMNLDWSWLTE

[25] = tested on: MYC-CaP-CR tumors; experiment: MYC-CaP-CR subcutaneous tumors in intact FVB male mice; assay type: in vivo, mouse; details: intact (uncastrated) FVB male mice
[26] = tested on: MV4-11 cells; experiment: MV4-11-Luc proliferation assay; details: Homo sapiens, MV4-11, read-out: Inhibition Potency MV4-11-Luc Assay
[27] = Oral PK in female CD-1 mice, solution formulation; details: oral gavage in solution, 30 mg/kg (15u series) or 16/18 mg/kg (15w series)
[28] = tested on: CDK8/19; experiment: NFκB Activity Assay (NFκB luciferase reporter, parental 293 cells); assay type: cell-based; details: read-out: Inhibition Potency HEK293-NFkB-Luc Assay
[29] = medicated diet 250 ppm plus daily gavage 5 then 8 mg/kg

## CN(C)C(=O)c1ccc(N2CCCN(c3ccnc4sc(C(N)=O)c(N)c34)CC2)cc1 [15u, 3-amino-4-(4-(4-(dimethylcarbamoyl)phenyl)-1,4-diazepan-1-yl)thieno[2,3-b]pyridine-2-carboxamide]
[1]
  effect on NFκB activation in CDK8/19-deficient cells: no effect
[2]
  adverse effects and body weight: no apparent adverse effects and no diminution of mouse body weight
  xenograft tumor growth: strongly suppressed the tumor growth
[3]
  % Ctrl: 88 % Ctrl
[4]
  AUC: 79.3 ng·h/mL
  half-life: 78 min
[4]; read-out: Bioavailability (F %)
  bioavailability: 43%
[5]
  % Ctrl: 88 % Ctrl
[6]
  mouse survival of the metastatic disease: significantly increased mouse survival
[7]
  % Ctrl: 99 % Ctrl
[8]
  % Ctrl: 81 % Ctrl
[9]
  % Ctrl: 92 % Ctrl
[10]
  % Ctrl: 100 % Ctrl
[11]
  % Ctrl: 77 % Ctrl
[12]
  % Ctrl: 96 % Ctrl
[13]
  Kd: 78 nM
[14]
  Kd: 230 nM
[15]
  Kd: 65 nM
[16]
  Kd: 240 nM
[17]
  Kd: 5600 nM
[18]
  ALP activity Assay EC200: 31.9 nM
[19]
  % Ctrl: 86 % Ctrl
[20]
  Elimination rate: 4.03 h⁻¹
[20]; mouse, serum, iv
  AUC: 92.1 ng·h/mL
  C0: 328 ng/mL
  Vd: 1.52 L/kg
  half-life: 10.2 min
[21]
  weight loss: 5-10%
[22]
  average serum concentration at 8 hrs as % of Cmax: 64.4%
[23]; long-term treatment
  mouse body weights: no detrimental effects
[23]; [29]
  final tumor weights: significantly lower
  tumor volume: significant reduction in tumor volume
[24]
  % Ctrl: 77 % Ctrl
[25]
  tumor volume and weight: modest effect
[26]
  IC50: 30 nM

## [2H]C([2H])([2H])N(C(=O)c1ccc(N2CCCN(c3ccnc4sc(C(N)=O)c(N)c34)CC2)cc1)C([2H])([2H])[2H] [15u_D6, 3-amino-4-(4-(4-(bis(methyl-d3)carbamoyl)phenyl)-1,4-diazepan-1-yl)thieno[2,3-b]pyridine-2-carboxamide]
[27]
  PK (AUC 0-8 h) versus undeuterated parent: slightly improved the PK
[28]
  IC50: 7.7 nM
[3]
  % Ctrl: 100 % Ctrl
[5]
  % Ctrl: 87 % Ctrl
[7]
  % Ctrl: 97 % Ctrl
[8]
  % Ctrl: 77 % Ctrl
[9]
  % Ctrl: 95 % Ctrl
[10]
  % Ctrl: 100 % Ctrl
[11]
  % Ctrl: 69 % Ctrl
[12]
  % Ctrl: 100 % Ctrl
[19]
  % Ctrl: 96 % Ctrl
[24]
  % Ctrl: 90 % Ctrl
